{"source": "patent US20220217999A1", "about": "“METHOD FOR PROTECTING PROTEIN FROM HEAT DAMAGE AND REDUCING RUMEN DEGRADABILITY OF METHIONINE” (AJINOMOTO CO., INC., priority 2019, published 2022)", "conditions": "for 16 hr. RUP, % of CP / Calculated IAP (intestinally available protein), g/100 g distillers grains / RUP digestibility, g/100 g RUP / RUP, % of DG Protein / Undigested CP, % of CP / Undigested CP, % of feed DM: 0.5 h 128° C. autoclave", "procedure": "Using a sample of wet distillers grains (“DG”) was obtained from a commercial ethanol plant, treatments were applied in duplicates. The DG was treated with the three levels of DL-methionine shown in Table 1 and heated in an autoclave for 0.5 hour at 128° C. Following heat treatment, samples were dried in a forced oven set at 40° C. Dried samples were composited within treatment and analyzed for RUP and undigested total tract protein using a standard method.", "note": "Where two headings read alike, the source gives them in different places."}
{"compound": "CSCCC(N)C(=O)O", "note": "(racemic) [DL-Methionine]", "values": [{"measurement": "16 hr. RUP, % of CP", "setting": "1.0 wt. % DL-Methionine added to distillers grains", "result": "69.2 % of CP"}, {"measurement": "Calculated IAP (intestinally available protein), g/100 g distillers grains", "setting": "1.0 wt. % DL-Methionine", "result": 15.7, "unit": "g/100 g distillers grains"}, {"measurement": "RUP digestibility, g/100 g RUP", "setting": "1.0 wt. % DL-Methionine", "result": 72.1, "unit": "g/100 g RUP"}, {"measurement": "RUP, % of DG Protein", "setting": "1.0 wt. % DL-Methionine", "result": "72.8 % of DG Protein"}, {"measurement": "Undigested CP, % of CP", "setting": "1.0 wt. % DL-Methionine", "result": "19.3 % of CP"}, {"measurement": "Undigested CP, % of feed DM", "setting": "1.0 wt. % DL-Methionine", "result": "6.02 % of feed DM"}, {"measurement": "16 hr. RUP, % of CP", "setting": "1.5 wt. % DL-Methionine added to distillers grains", "result": "71.2 % of CP"}, {"measurement": "Calculated IAP (intestinally available protein), g/100 g distillers grains", "setting": "1.5 wt. % DL-Methionine", "result": 15.2, "unit": "g/100 g distillers grains"}, {"measurement": "RUP digestibility, g/100 g RUP", "setting": "1.5 wt. % DL-Methionine", "result": 67.8, "unit": "g/100 g RUP"}, {"measurement": "RUP, % of DG Protein", "setting": "1.5 wt. % DL-Methionine", "result": "74.8 % of DG Protein"}, {"measurement": "Undigested CP, % of CP", "setting": "1.5 wt. % DL-Methionine", "result": "22.9 % of CP"}, {"measurement": "Undigested CP, % of feed DM", "setting": "1.5 wt. % DL-Methionine", "result": "7.08 % of feed DM"}, {"measurement": "calculated digestibility of RUP, higher compared with Control", "setting": "2% DL-methionine", "result": 13.9, "unit": "%"}, {"measurement": "total metabolically available protein, higher compared with Control", "setting": "2% DL-methionine sample", "result": 17, "unit": "%"}, {"measurement": "16 hr. RUP, % of CP", "setting": "2.0 wt. % DL-Methionine added to distillers grains", "result": "67.2 % of CP"}, {"measurement": "Calculated IAP (intestinally available protein), g/100 g distillers grains", "setting": "2.0 wt. % DL-Methionine", "result": 16.0, "unit": "g/100 g distillers grains"}, {"measurement": "RUP digestibility, g/100 g RUP", "setting": "2.0 wt. % DL-Methionine", "result": 72.7, "unit": "g/100 g RUP"}, {"measurement": "RUP, % of DG Protein", "setting": "2.0 wt. % DL-Methionine", "result": "73.3 % of DG Protein"}, {"measurement": "Undigested CP, % of CP", "setting": "2.0 wt. % DL-Methionine", "result": "18.3 % of CP"}, {"measurement": "Undigested CP, % of feed DM", "setting": "2.0 wt. % DL-Methionine", "result": "5.85 % of feed DM"}, {"measurement": "total un-digested protein, lower compared with Control", "setting": "highest level of DL-methionine", "result": 28, "unit": "%"}]}
